Measured values published in patent publication US20070166547A1, “Use of a layer consisting of hydrophobic linear, or two-dimensional polycyclic aromatics as a barrier layer or an encapsulation and electric components constructed with a layer of this type and comprising organic polymers” (priority 2003, published 2007).

How the values were obtained:
[1] = Polarographic study of electrochemical reduction (electrochemical activity); assay type: physicochemical; settings: for number of electrons participating in the reduction: calculated with the Geirovsky-Ilkovich equation; for i, mkA (polarographic wave current) / −E1/2, V (half-wave potential vs SCE): 37° C., forward trace, average for the group; for i, mkA (polarographic wave current): 9·10^−4 M; for half-wave potential more positive on reverse stroke than on forward stroke: reverse stroke vs forward stroke
Experimental: The study was carried out on a general-purpose polarograph PU-1 with a two-coordinate recorder of the “LKD” type using a three-electrode thermostatically controlled polarographic cell and mercury dripping electrode (MDE) with forced separation of the drop and a dropping period of 0.5 second. A platinum wire was used as an auxiliary electrode and a saturated calomel electrode (SCE) was used as a control electrode.
2.0% solutions of sodium chloride having pH 7.0, 7.2, 7.4, 7.6 were used as a background; the pH values of the background solution were corrected by a solution of sodium hydroxide. The polarographic cell was filled with 5.0 ml of the background solution and for 5 minutes was purged with nitrogen for removing the dissolved oxygen. Then 0.5 ml of solution of the studied substance was added to the background solution, and the polarogram was recorded as a polarographic wave. The concentration of the compounds in the polarographic cell was 9·10^−4 M.
The pH was measured on the pH-meter with an accuracy of ±0.05 pH units. The polarographic measurements were carried out at a temperature of 37° C. The recording of polarograms of the investigated materials was effected under conditions of DC current at a scanning rate of the potential 10.0 mV/s with a active scanning stroke from a potential 0 to −0.5 V and sweep retrace from a −0.5 V to 0. The electric-current sensitivity was 5.0 mkA. The scale by the coordinate of the potentials was 50.0 mV/cm. The values of potentials of the half-wave E1/2 of the investigated materials are given with respect to the SCE potential.
The polarogram parameters such as a limiting current ilim and E1/2 were determined by the graphic method. The number of electrons participating in the reaction was calculated on the basis of the analysis of the polarographic wave using the Geirovsky-Ilkovich equation.

[2] = system: embyronic fibroblasts of mouse NIH-3T3; assay: Endocellular pHi of fibroblasts by microspectrofluorimetry (FDA, BCECF-AM); assay type: cell-based; settings: for rise of pHi: fibroblasts in an attached spread state; for increase of pHi: 20 minutes
Experimental: The effect of the compounds according to the invention on the endocellular pH, embyronic fibroblasts of mouse NIH-3T3 supplied by the All-Russian Collection of Cellular Cultures of the Institute of Cytology of the Russian Academy of Sciences St. Petersburg was investigated. The cells were grown in the DMEM (Sigma) medium containing 2.2 g/l of sodium bicarbonate with addition of 80.0 mkg/ml of gentamicin and 10.0% embryonal veal serum at a temperature of 37° C. in an atmosphere containing 5.0% of carbon dioxide. For these experiments use was also made of a medium buffer with 5.0 mM of HEPES and 15.0 mM of sodium bicarbonate without serum or with addition of 5.0% serum. The cells were calculated with the help of a hemocytometer. A share of the dead cells was determined by colouring trypan blue.
The measurements of the endocellular pHi were carried out with the help of colorants FDA (Sigma) and BCECF-AM (Calbiochem) on a microspectrofluorimeter by a standard technique (Koshevoy Yu. V., Akatov V. S., Grobova M. E. Microspectrofluorimeter for measuring endocellular pH (micro pH)”. Devices and equipment for studies in the field of physical-and-chemical biology and biotechnology. Pushchino, 1990. P. 8-14).
The cells at a temperature of 37° C. were colored within 5 minutes with 5.0 mkM PDA that before the colouring was prepared from a 10.0 mM solution in acetone by dilution for 30 minutes in a phosphatic buffer to 0.1 mM or 2.0 mkM 1.0 mM solution BCECF-AM in DMSO.
The two-wave method of determining pHi was used based on the ratio intensities of fluorescence of the cells on two wavelengths (Akatov V. S. et all), “Endocellular pH and substrate dependence of proliferation of fibroblasts of Chinese hamster, Cytology, 1991, 33 (7), p. 86-94). The fluorescence was excited by light at λ=490 nm, the emission was recorded simultaneously with two photomultipliers on wavelengths λ=535 nm and λ=570 nm. The K-ratio of the fluorescence on two wavelengths was determined with a deduction of the background fluorescence of the medium near the investigated cells for 40-60 individual cells, which are then averaged taking into account the measurement error. A thermostatically controlled table was used that allowed measurements to be conducted at a temperature of 37° C. An account was taken for the photodynamic damage of the pigmented cells during-long-time continuous illumination by excited light. The readings were taken from a section of the preparation exposed to light for not more than 5 minutes.
The calibration curves for determining the absolute pHi values by magnitude K were constructed using the Thomas technique (Thomas J. A., Bushbaum R. N., Zimniak A. w Racker E. “Intracellular pH measurements in Ehrlich ascites tumor cells utilizing spectroscopic probe generated in situ”, Biochemistry, 1979, v. 18, p. 2210-2218), for which case the pigmented cells treated for 5-10 minutes with carboxyacidic nigericyn (Calbiochem) at a concentration of 5-10 mkg/ml was placed in a solution with a high content of potassium—130 mM KCl, 1.0 mM MgCl2, 20.0 mM of HEPES) and with pH values from 6.2 to 7.6. The K values were measured in the media with different pH assuming that pHi of the cells equals to the pH of the medium due to the action of nigericyn, which exchanges potassium ions for protons and at a high content of potassium in the medium counterbalances the pH of the medium and cells. Calibration curves were used based on the fluorescence of same medium with addition of 5.0 mkM of fluorescence or BCECF were used to the control the stability of the of the instrument readings.
The correctness of the technique was confirmed in the experiments on measurements of pH values of cells treated with protonofor monencine raising pH of the cells due to replacement of sodium ions by protons, and by determining the dependence of the change of pHi on the change of the pH of the medium. […]

[3] = medium with 10.0% blood serum, 0.02 mkg/ml, suspension
[4] = medium with 10.0% blood serum, 0.2 mkg/ml, suspension
[5] = medium with 10.0% blood serum, 2.0 mkg/ml, suspension
[6] = medium with 10.0% blood serum, 20.0 mkg/ml, suspension
[7] = medium without blood serum, 0.02 mkg/ml
[8] = medium without blood serum, 0.2 mkg/ml
[9] = medium without blood serum, 2.0 mkg/ml
[10] = medium without blood serum, 20.0 mkg/ml
[11] = medium without blood serum, 200 mkg/ml
[12] = medium without blood serum, 1000 mkg/ml

| Compound | number of electrons participating in the reduction [1] | i, mkA (polarographic wave current) ([1]; pH 7.0) [mkA] | −E1/2, V (half-wave potential vs SCE) ([1]; pH 7.0) [V] | i, mkA (polarographic wave current) ([1]; pH 7.2) [mkA] | i, mkA (polarographic wave current) ([1]; pH 7.4) [mkA] | −E1/2, V (half-wave potential vs SCE) ([1]; pH 7.4) [V] | i, mkA (polarographic wave current) ([1]; pH 7.6) [mkA] | −E1/2, V (half-wave potential vs SCE) ([1]; pH 7.6) [V] | half-wave potential more positive on reverse stroke than on forward stroke [1] [mV] | rise of pHi ([2]; 2.0 mkg/ml) [unit pHi] | rise of pHi ([2]; 20.0 mkg/ml) [unit pHi] | increase of pHi [2, 3] | increase of pHi [2, 4] [unit pH] | increase of pHi [2, 5] [unit pH] | increase of pHi [2, 6] | increase of pHi [2, 7] | increase of pHi [2, 8] | increase of pHi [2, 9] [unit pHi] | increase of pHi [2, 10] [unit pHi] | increase of pHi [2, 11] | also measured |
| --- | --- | --- | --- | --- | --- | --- | --- | --- | --- | --- | --- | --- | --- | --- | --- | --- | --- | --- | --- | --- | --- |
| O=c1[nH][nH]c(=O)c2ncccc12.[Na] [Compound 7, sodium salt of pyrido[2,3-d]-6H-pyridazine-5,8-dione] | 3.72 | 0.26 ± 0.04 | 0.11 ± 0.02 | 0.31 ± 0.02 | 0.27 ± 0.03 | 0.105 ± 0.01 | 0.30 ± 0.01 | 0.105 ± 0.02 | 25.0 | 0.10 | 0.07 | do not initiate a change of pH | 0.1 | 0.12 | do not initiate a change of pH | no effect was found | no effect was found | 0.08 | 0.08 | no effect was found | −E1/2, V (half-wave potential vs SCE) ([1]; pH 7.2): 0.11 ± 0.03 V; increase of pHi [2, 12]: no effect was found |
| O=C([O-])c1ccc2c(=O)[nH][nH]c(=O)c2c1.O=C([O-])c1ccc2c(=O)[nH][nH]c(=O)c2c1.[Na+].[Na+] [Compound 18, disodium salt of 6-carboxy-benzo[d]-3H-pyridazine-1,4-dione] | 4.09 | 0.23 ± 0.03 | 0.092 ± 0.02 | 0.30 ± 0.01 | 0.29 ± 0.02 | 0.092 ± 0.02 | 0.31 ± 0.02 | 0.09 ± 0.01 | 30.0 | 0.10 | 0.07 | do not initiate a change of pH | 0.1 | 0.12 | do not initiate a change of pH | no effect was found | no effect was found | 0.08 | 0.08 | no effect was found | −E1/2, V (half-wave potential vs SCE) ([1]; pH 7.2): 0.09 ± 0.01 V; increase of pHi [2, 12]: no effect was found |
| O=c1[nH][nH]c(=O)c2ncncc12.[Li] [Compound 35, lithium salt of pyrimido[4,5-d]-6H-pyridazine-5,8-dione] | 3.5 | 0.30 ± 0.05 | 0.08 ± 0.02 | 0.26 ± 0.02 | 0.30 ± 0.03 | 0.085 ± 0.02 | 0.30 ± 0.02 | 0.09 ± 0.02 | 27.0 | 0.10 | 0.07 | do not initiate a change of pH | 0.1 | 0.12 | do not initiate a change of pH | no effect was found | no effect was found | 0.08 | 0.08 | no effect was found | increase of pHi [2, 12]: no effect was found |
